Results: PMC11388056 (Clinical and Translational Science, 2024)
Read-outs that look alike come from different tables or passages of the source. Marks after values point to notes of the source that are not given here.

Experiments:
[1] = for digoxin CL/F: arithmetic mean ± SD
[2] = clinical; conditions: human, plasma, oral, geometric mean (geometric CV%), n = 20
[3] = Safety evaluation; assay type: in vivo, human (healthy adults); conditions: part 1, treatments pooled
[4] = for futibatinib CL/F: arithmetic mean ± SD
[5] = cited from earlier work
[6] = cited from earlier work; remark: listed apart in the source
[7] = tested on: P‐glycoprotein (P‐gp); conditions: in vitro; cited from earlier work
[8] = clinical; conditions: human, plasma, 20 mg
[9] = participants with advanced solid tumors; cited from earlier work
[10] = with itraconazole; cited from earlier work
[11] = Safety evaluation; assay type: in vivo, human (healthy adults); conditions: part 2; of a total of 27 TEAEs
[12] = Phase I DDI study part 1: plasma rosuvastatin PK with and without futibatinib; assay type: in vivo, human (healthy adults)
[13] = digoxin + rosuvastatin, without futibatinib, median (min, max)
[14] = quinidine coadministration vs. futibatinib alone
[15] = after coadministration with futibatinib vs. rosuvastatin plus digoxin
[16] = digoxin + rosuvastatin, without futibatinib, arithmetic mean ± SD, 18 participants

## C[C@H]1O[C@@H](O[C@H]2[C@@H](O)C[C@H](O[C@H]3[C@@H](O)C[C@H](O[C@H]4CC[C@@]5(C)[C@H](CC[C@@H]6[C@@H]5C[C@@H](O)[C@]5(C)[C@@H](C7=CC(=O)OC7)CC[C@]65O)C4)O[C@@H]3C)O[C@@H]2C)C[C@H](O)[C@@H]1O [digoxin]
[1]; digoxin + rosuvastatin with futibatinib, 19 participants
  digoxin CL/F: 14.6 ± 5.4 ^a L/h
[1]; digoxin + rosuvastatin, without futibatinib
  digoxin CL/F: 14.6 ± 4.1 L/h
[1]; [13]
  digoxin T max: 1.0 (0.67, 2.0) h
[1]; digoxin administered with futibatinib vs. without
  mean digoxin renal clearance lower: 13%
[1]; following digoxin, rosuvastatin and futibatinib vs. without futibatinib
  delay of median digoxin T max: ~ 0.3 h
[1]; with and without futibatinib
  difference in digoxin C max and AUC: < 20%
[1]; with vs. without futibatinib
  digoxin AUC0–120 GMR (90% CI): 103.9 (94.5–114.2) %
  digoxin AUCinf GMR (90% CI): 100.2 (90.8–110.5) %
  digoxin C max GMR (90% CI): 95.1 (81.1–111.5) %
  digoxin CLr GMR (90% CI): 87.1 (80.8–93.9) %
[2]; digoxin AUCinf, digoxin + rosuvastatin, without futibatinib
  AUC(0-inf): 17.7 ng·h/mL
[2]; digoxin C max, digoxin + rosuvastatin with futibatinib 20 mg once daily
  Cmax: 0.953 ng/mL

## C=CC(=O)N1CC[C@H](n2nc(C#Cc3cc(OC)cc(OC)c3)c3c(N)ncnc32)C1 [futibatinib]
[3]
  TEAE diarrhea: 80%
  TEAE increased blood phosphate: 75%
[4]; futibatinib + quinidine, n = 15
  futibatinib CL/F: 34.3 ± 13.2 L/h
[4]; futibatinib + quinidine, geometric mean (geometric CV%), n = 15
  futibatinib AUCinf: 627.0 (41.6) ng*h/mL
[4]; futibatinib alone, n = 24
  futibatinib CL/F: 43.1 ± 40.8 L/h
[4]; [14]
  increase in futibatinib C max and AUC: < 20%
  magnitude of increase in futibatinib AUC0–24: 16%
  magnitude of increase in futibatinib AUCinf (exposure): 17%
  magnitude of increase in futibatinib C max: 8%
[4]; with vs. without quinidine
  futibatinib AUC0–24 GMR (90% CI): 116.4 (95.4–142.1) %
  futibatinib AUCinf GMR (90% CI): 117.0 (96.0–142.7) %
  futibatinib C max GMR (90% CI): 108.0 (90.9–128.3) %
[5]; administered with or without lansoprazole
  difference in futibatinib exposure: no significant differences
[5]; fed versus fasted conditions, healthy participants
  futibatinib bioavailability lower: 11.2%
[6]; coadministered with itraconazole (dual P‐gp and CYP3A inhibitor)
  futibatinib exposure increased: 41%–51%
[6]; coadministered with rifampin (dual P‐gp and CYP3A inducer)
  futibatinib exposure decreased: 53%–64%
[7]
  substrate of P‐gp: substrate
[8]; oral
  Vd/F: 132 ± 72.2 L
  half-life: 2.5 ± 0.83 h
[8]; oral, futibatinib AUCinf, futibatinib alone, geometric mean (geometric CV%), n = 24
  AUC(0-inf): 582 ng·h/mL
[8]; po
  AUC(0-t): 580 ng·h/mL
[9]
  terminal elimination half‐life (t ½): approximately 3 h

## CCN1C(=O)N(c2c(F)c(OC)cc(OC)c2F)Cc2cnc3[nH]c(CN4CCOCC4)cc3c21 [pemigatinib]
[10]
  increase in pemigatinib AUC: 88%
  increase in pemigatinib C max: 17%

## C=C[C@H]1C[N@@]2CC[C@H]1C[C@@H]2[C@@H](O)c1ccnc2ccc(OC)cc12 [quinidine]
[11]
  TEAEs considered by the investigator to be related to the drug: 22 events

## CC(C)c1nc(N(C)S(C)(=O)=O)nc(-c2ccc(F)cc2)c1/C=C/[C@@H](O)C[C@@H](O)CC(=O)O [rosuvastatin]
[12]; [15]
  geometric mean rosuvastatin AUCs higher: ≤ 18.8%
  geometric mean rosuvastatin C max higher: 10.2%
[12]; digoxin + rosuvastatin with futibatinib, arithmetic mean ± SD
  rosuvastatin CL/F: 207.2 ± 105.7 L/h
[12]; [16]
  rosuvastatin CL/F: 247.3 ± 167.2 ^c L/h
  rosuvastatin t ½: 16.7 ± 8.5 ^c h
[12]; [13]
  rosuvastatin T max: 4.0 (1.0, 6.1) h
[12]; human, plasma, oral, rosuvastatin AUCinf, digoxin + rosuvastatin, without futibatinib, geometric mean (geometric CV%), 18 participants
  AUC(0-inf): 46.9 ng·h/mL
[12]; with vs. without futibatinib
  increase in rosuvastatin C max and AUC: < 20%
  rosuvastatin AUC0–72 GMR (90% CI): 118.8 (107.9–130.7) %
  rosuvastatin AUCinf GMR (90% CI): 113.5 (102.6–125.5) %
  rosuvastatin C max GMR (90% CI): 110.2 (97.3–124.8) %
